# Measurements from ChEMBL document CHEMBL5214943, “Guanidino quinazolines and pyrimidines promote readthrough of premature termination codons in cells with native nonsense mutations” (Bioorg Med Chem Lett, 2022).
# Active and inactive are the calls of the source. The rule behind the calls is not given here.
# Molecular target: Dystrophin (Mus musculus) (UniProt P11531)
# Test: Induction of read through activity at dystrophin in mouse H2K mdx cells assessed as increase in production of full length dystrophin protein at 0.01 to 100 uM by MSD assay
# Type: cell-based
# Conditions: filed as activator, dose 0.01-100 µM
# Sequence of Dystrophin (Mus musculus) (P11531 whole entry): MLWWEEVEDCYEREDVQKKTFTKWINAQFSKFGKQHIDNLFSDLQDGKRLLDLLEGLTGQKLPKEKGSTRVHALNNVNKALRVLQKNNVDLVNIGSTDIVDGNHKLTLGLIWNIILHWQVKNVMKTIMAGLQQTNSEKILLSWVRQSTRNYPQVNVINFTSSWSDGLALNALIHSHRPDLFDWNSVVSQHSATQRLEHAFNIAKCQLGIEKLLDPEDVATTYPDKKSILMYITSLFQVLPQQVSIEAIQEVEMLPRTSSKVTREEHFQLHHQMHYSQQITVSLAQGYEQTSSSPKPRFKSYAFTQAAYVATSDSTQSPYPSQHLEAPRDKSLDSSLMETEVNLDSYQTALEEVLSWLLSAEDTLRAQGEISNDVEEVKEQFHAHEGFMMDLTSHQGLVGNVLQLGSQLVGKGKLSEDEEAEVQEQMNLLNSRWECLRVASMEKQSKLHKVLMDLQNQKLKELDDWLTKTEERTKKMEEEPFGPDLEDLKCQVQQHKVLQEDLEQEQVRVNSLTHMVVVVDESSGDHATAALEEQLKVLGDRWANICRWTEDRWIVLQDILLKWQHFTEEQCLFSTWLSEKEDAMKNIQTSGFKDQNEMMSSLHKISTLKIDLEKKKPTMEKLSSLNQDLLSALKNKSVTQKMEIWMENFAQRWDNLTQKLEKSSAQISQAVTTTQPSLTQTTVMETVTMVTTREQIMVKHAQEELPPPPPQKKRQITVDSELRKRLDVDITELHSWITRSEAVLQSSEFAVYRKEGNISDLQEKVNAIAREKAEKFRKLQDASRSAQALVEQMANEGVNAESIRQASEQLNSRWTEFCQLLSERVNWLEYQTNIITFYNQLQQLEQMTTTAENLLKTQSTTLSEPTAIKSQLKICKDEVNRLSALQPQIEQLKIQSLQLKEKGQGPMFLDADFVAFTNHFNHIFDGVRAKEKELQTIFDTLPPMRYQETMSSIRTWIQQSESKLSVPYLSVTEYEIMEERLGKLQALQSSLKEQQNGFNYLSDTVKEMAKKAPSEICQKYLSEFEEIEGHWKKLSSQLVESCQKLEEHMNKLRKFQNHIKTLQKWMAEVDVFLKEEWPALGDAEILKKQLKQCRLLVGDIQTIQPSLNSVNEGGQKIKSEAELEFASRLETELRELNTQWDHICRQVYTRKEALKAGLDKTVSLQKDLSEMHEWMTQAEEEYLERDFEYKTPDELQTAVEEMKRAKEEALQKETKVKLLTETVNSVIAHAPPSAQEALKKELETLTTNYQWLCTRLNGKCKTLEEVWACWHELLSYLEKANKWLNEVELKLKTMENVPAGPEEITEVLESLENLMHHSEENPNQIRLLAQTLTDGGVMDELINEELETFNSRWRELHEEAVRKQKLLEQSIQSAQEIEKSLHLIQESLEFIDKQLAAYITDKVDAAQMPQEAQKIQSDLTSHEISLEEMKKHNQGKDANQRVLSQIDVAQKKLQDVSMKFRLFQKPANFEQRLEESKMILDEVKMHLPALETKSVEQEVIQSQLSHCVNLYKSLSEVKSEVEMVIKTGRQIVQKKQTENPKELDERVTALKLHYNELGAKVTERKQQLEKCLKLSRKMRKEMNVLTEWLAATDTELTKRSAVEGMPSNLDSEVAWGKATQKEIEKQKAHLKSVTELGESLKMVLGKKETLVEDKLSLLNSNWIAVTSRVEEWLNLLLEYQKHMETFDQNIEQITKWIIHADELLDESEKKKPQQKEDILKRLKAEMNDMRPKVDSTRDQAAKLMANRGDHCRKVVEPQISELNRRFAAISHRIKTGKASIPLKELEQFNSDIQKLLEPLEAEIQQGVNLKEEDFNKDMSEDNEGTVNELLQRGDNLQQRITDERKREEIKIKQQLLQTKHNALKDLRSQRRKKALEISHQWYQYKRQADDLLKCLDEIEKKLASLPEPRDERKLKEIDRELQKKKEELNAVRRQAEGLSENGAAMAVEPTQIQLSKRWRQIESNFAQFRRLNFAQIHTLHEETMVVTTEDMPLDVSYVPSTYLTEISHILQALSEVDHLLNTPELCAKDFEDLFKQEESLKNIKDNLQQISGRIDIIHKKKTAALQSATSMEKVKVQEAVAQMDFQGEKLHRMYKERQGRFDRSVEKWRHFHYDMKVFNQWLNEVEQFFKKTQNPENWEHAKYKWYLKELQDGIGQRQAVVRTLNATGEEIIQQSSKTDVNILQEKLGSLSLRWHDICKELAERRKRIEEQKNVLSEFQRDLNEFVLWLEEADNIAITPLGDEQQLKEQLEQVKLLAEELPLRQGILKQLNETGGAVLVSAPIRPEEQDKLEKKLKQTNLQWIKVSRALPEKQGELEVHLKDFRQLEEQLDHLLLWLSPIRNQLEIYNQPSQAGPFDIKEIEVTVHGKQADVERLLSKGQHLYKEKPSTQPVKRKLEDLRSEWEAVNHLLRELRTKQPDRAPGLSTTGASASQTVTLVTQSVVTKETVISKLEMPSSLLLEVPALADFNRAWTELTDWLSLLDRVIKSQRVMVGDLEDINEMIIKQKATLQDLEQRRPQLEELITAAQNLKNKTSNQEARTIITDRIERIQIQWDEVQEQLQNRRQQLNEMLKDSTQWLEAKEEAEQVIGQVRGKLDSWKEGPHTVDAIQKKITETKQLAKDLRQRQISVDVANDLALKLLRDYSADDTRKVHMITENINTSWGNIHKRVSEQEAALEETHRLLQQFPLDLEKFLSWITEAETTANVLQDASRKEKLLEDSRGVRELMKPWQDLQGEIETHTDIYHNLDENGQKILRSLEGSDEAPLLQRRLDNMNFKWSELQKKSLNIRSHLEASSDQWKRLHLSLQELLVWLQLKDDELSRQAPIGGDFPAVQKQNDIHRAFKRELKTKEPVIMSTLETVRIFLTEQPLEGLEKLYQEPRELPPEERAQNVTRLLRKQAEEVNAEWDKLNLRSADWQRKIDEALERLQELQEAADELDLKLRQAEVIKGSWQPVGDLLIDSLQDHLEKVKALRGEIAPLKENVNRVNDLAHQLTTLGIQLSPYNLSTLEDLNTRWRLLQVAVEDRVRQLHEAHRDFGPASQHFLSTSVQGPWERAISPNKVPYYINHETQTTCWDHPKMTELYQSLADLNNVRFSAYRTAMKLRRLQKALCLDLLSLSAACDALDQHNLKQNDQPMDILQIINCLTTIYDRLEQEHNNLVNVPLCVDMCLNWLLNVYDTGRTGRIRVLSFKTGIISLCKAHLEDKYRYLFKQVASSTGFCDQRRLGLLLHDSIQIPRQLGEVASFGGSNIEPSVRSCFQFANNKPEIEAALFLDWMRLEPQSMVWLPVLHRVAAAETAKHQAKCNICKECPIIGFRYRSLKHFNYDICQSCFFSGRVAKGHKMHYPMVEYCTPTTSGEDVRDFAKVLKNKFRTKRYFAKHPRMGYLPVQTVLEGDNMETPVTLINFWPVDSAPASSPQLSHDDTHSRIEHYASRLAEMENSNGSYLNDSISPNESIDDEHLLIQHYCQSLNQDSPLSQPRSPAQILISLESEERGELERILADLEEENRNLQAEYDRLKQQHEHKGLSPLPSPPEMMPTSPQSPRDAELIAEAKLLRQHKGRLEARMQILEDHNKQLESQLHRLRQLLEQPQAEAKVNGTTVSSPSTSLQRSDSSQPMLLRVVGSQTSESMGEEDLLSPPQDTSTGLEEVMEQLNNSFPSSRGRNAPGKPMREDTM
row,Activity,SMILES
1,Active,Cc1nc(NC(=N)NCCCN2CCCC2)nc(-c2ccoc2)c1C

# Molecular target: Dystrophin (Mus musculus) (UniProt P11531)
# Test: Induction of read through activity at dystrophin in mouse H2K mdx cells assessed as increase in production of full length dystrophin protein at 0.07 to 2 uM by western blot assay
# Type: cell-based
# Conditions: filed as activator, dose 0.07-2 µM
row,Activity,SMILES
1,Active,N=C(NCCCN1CCCCC1)Nc1nc2c(c(-c3ccoc3)n1)CCC2

# Molecular target: Dystrophin (Mus musculus) (UniProt P11531)
# Test: Induction of read through activity at dystrophin in mouse H2K mdx cells assessed as increase in production of full length dystrophin protein at 0.6 to 20 uM by western blot assay
# Type: cell-based
# Conditions: filed as activator, dose 0.6-20 µM
row,Activity,SMILES
1,Active,Cc1nc(NC(=N)NCCCN2CCCC2)nc(-c2ccoc2)c1C

# Molecular target: Dystrophin (Mus musculus) (UniProt P11531)
# Test: Induction of read through activity at dystrophin in mouse H2K mdx cells assessed as increase in production of full length dystrophin protein by measuring fold change at 0.01 to 100 uM by MSD assay
# Type: cell-based
# Conditions: filed as activator, dose 0.01-100 µM
row,fold change (FC),SMILES
1,3,N=C(NCCCN1CCCCC1)Nc1nc2c(c(-c3ccoc3)n1)CCC2

# Molecular target: Dystrophin (Mus musculus) (UniProt P11531)
# Test: Induction of read through activity at dystrophin in mouse H2K mdx cells assessed as increase in production of full length dystrophin protein at <2 uM by MSD assay
# Type: cell-based
# Conditions: filed as activator
row,Activity,SMILES
1,Active,N=C(NCCCN1CCCCC1)Nc1nc2c(c(-c3ccoc3)n1)CCC2

# Test system: Premature termination codon
# Test: Induction of read through activity at T-p53 R213X mutant premature termination codon in human HDQ-P1 cells assessed as increase in production of full length p53 protein by MSD assay
# Type: cell-based
# Conditions: not given
row,SMILES,EC2 [µM]
1,C/N=C(/NCCCN(C)C)Nc1nc(C)c2ccccc2n1,> 30
2,Cc1nc(NC(=N)NCC(F)(F)CN(C)C)nc2ccccc12,> 30
3,Cc1ccc2cnc(NC(=N)N)nc2c1,> 100
4,Cc1nc(NC(=N)NCC(=O)O)nc2cc(F)ccc12,> 100
5,Cc1nc(NC(=N)NCCCN(C)CC(=O)O)nc2ccccc12,> 30
6,Cc1nc(NC(=N)Nc2cccc(N(C)C)c2)nc2cc(Cl)ccc12,> 30
7,Cc1nc(NC(=N)N)cc2ccccc12,> 100
8,Cc1nc(NC(N)=O)nc2cc(Cl)ccc12,> 100
9,Cc1nc(NS(N)(=O)=O)nc2cc(Cl)ccc12,> 100
10,Cc1ccnc(NC(=N)NCCCN(C)C)n1,> 30
11,Cc1nc(NC(=N)N(C)CCCN(C)C)nc2ccccc12,> 30
12,Cc1nc(N)nc2ccccc12,> 100
13,Cc1ccc2c(C)cc(NC(=N)N)nc2c1,> 100
14,Cc1nc(NC(=N)NCCCN(C)CC(F)(F)F)nc2ccccc12,> 30
15,Cc1nc(NC(=N)NCCCN2CCCC2)nc(C)c1-c1ccoc1,> 30

# Same assay, conditions: filed as activator
row,SMILES,EC2 [µM]
1,CN(C)CCCNC(=N)Nc1nc2c(c(-c3ccoc3)n1)COC2,2.4
2,Cc1nc(NC(=N)NCCCCCCN(C)C)nc2cc(F)ccc12,17
3,Cc1cccc2nc(NC(=N)NC3CCNCC3)nc(C)c12,1.1
4,Cc1nc(NC(=N)NCCCc2ccccc2)nc2ccccc12,47
5,Cc1nc(NC(=N)N)nc2ccccc12,20
6,CN(C)CCCNC(=N)Nc1nc(-c2ccoc2)c2ccsc2n1,1.3
7,Cc1nc(NC(=N)NCCCN(C)[C@@H](C)c2ccccc2)nc2ccccc12,2.2
8,Cc1nc(NC(=N)NCCCN2CCCC2)nc(-c2ccsc2)c1C,1.4
9,Cc1nc(NC(=N)NCCCN(C)C)nc2ccccc12,1.7
10,Cc1cccc2nc(NC(=N)N[C@H]3CCN(C)C3)nc(C)c12,1
11,CNCCCNC(=N)Nc1nc(C)c2ccc(F)cc2n1,2.5
12,Cc1nc(NC(=N)NCCCN2CCCC2)nc(-c2ccoc2)c1C(F)(F)F,15
13,CN1CCC(NC(=N)Nc2nc3c(c(-c4ccco4)n2)CCC3)CC1,0.12
14,Cc1nc(NC(=N)NCCCN2CCCC2)nc(-c2ccoc2)c1F,1.6
15,N=C(NCCCN1CCCCC1)Nc1nc2c(c(-c3ccoc3)n1)CCC2,0.4
16,CCc1c(C)nc(NC(=N)NCCCN2CCCC2)nc1-c1ccoc1,3.2
17,Cc1nc(NC(=N)NCCCN2CCCC2)nc(-c2cccs2)c1C,0.42
18,Cc1cccc2nc(NC(=N)N[C@@H]3CCN(C)C3)nc(C)c12,0.34
19,Cc1nc(NC(=N)NCCCN(C)CC2CCC2)nc2cc(F)ccc12,1.1
20,Cc1ccc2c(C)nc(NC(=N)N)nc2c1,10
21,Cc1nc(NC(=N)NCCCN)nc2cc(F)ccc12,9.8
22,Cc1cccc2nc(NC(=N)N[C@H]3CCNC3)nc(C)c12,2.2
23,Cc1nc(NC(=N)NCCCN2CCCC2)nc2cc(F)ccc12,1.5
24,CCN(CC)CCCNC(=N)Nc1nc(C)c2ccc(F)cc2n1,2.2
25,Cc1ccc2c(C)nc(NC(=N)NCCCN3CCCC3)nc2c1,1

row,SMILES,EC2 [µM]
1,Cc1cccc2nc(NC(=N)NCCCN3CCCC3)nc(C)c12,0.84
2,Cc1nc(NC(=N)NCCCN2CCCC2)nc(-c2ccoc2)c1Cl,0.77
3,CCc1cc(C)nc(NC(=N)NCCCN(C)C)n1,17
4,N=C(NCCCN1CCCC1)Nc1nc2c(c(-c3ccoc3)n1)CCC2,0.44
5,CN[C@@H]1[C@@H](O)[C@@H](O[C@@H]2[C@@H](O)[C@H](O[C@H]3O[C@H]([C@H](C)O)[C@@H](O)[C@H](O)[C@H]3N)[C@@H](N)C[C@H]2N)OC[C@]1(C)O,8.5
6,Cc1nc(NC(=N)NCCCN(C)C)nc2cc(F)cc(F)c12,2.9
7,Cc1nc(NC(=N)NCCCN2CCN3CCCCC3C2)nc2cc(F)ccc12 (stereo not given),3.5
8,Cc1nc(NC(=N)NCCCCCN(C)C)nc2cc(F)ccc12,6.6
9,Cc1cccc2nc(NC(=N)NC3CCN(C)CC3)nc(C)c12,0.51
10,Cc1nc(NC(=N)NCC2(CN(C)C)CCCC2)nc2cc(F)ccc12,16
11,CNC(=N)Nc1nc(C)c2ccc(C)cc2n1,7.7
12,Cc1nc(NC(=N)N[C@H](C)CCN(C)C)nc2ccccc12,2.5
13,Cc1cccc2nc(NC(=N)N[C@@H]3CCNC3)nc(C)c12,1.3
14,Cc1nc(NC(=N)NCCO)nc2cc(F)ccc12,26
15,Cc1cc(-c2ccccc2)nc(NC(=N)NCCCN(C)C)n1,7.3
16,COc1cccc(NC(=N)Nc2nc(C)c3ccccc3n2)c1,21
17,CN(C)CCCNC(=N)Nc1nc(-c2ccoc2)c2sccc2n1,0.7
18,Cc1ccc2c(C)nc(NC(=N)NCCCN(C)C)nc2c1,1.1
19,Cc1nc(NC(=N)NCCCN2CCOCC2)nc2cc(F)ccc12,4.7
20,CN(C)CCCNC(=N)Nc1nc(-c2ccccc2)c2ccccc2n1,7.5
21,N=C(NCCCN1CCC1)Nc1nc2c(c(-c3ccoc3)n1)CCC2,0.44
22,CN1CCC(NC(=N)Nc2nc3c(c(-c4ccoc4)n2)CCC3)CC1,0.22
23,CN(C)CCCNC(=N)Nc1ncc2ccccc2n1,7.5
24,CN(C)CCCNC(=N)Nc1nc2c(c(-c3ccoc3)n1)CCCCCC2,2.7
25,Cc1nc(NC(=N)NCCCN2CCC3(CCC3)C2)nc2cc(F)ccc12,2.3

row,SMILES,EC2 [µM]
1,CN(C)CCCNC(=N)Nc1nc(-c2ccoc2)c2occc2n1,2
2,Cc1nc(NC(=N)NCCCN(C)C)nc2cc(F)ccc12,1.1
3,CN(C)CCCNC(=N)Nc1nc2c(c(-c3ccoc3)n1)CCCC2,1.1
4,Cc1nc(NC(=N)NCCCN2CCCC2)nc(-c2ccoc2)c1C,1.2
5,Cc1nc(N=C(N)N)nc2cc(Cl)ccc12,6.3
6,Cc1nc(NC(=N)NCCCN2CCCC2)nc(-c2ccco2)c1C,0.56
7,Cc1nc(NC(=N)NCCCN2CCCC2)nc(-c2ccoc2)c1Br,0.96
8,CN(C)CCCNC(=N)Nc1nc2c(c(-c3ccoc3)n1)CCCCC2,3.5
9,CN(C)CCCNC(=N)Nc1nc2c(c(-c3ccoc3)n1)CCC2,0.44
10,Cc1nc(NC(=N)NCCCN(C)C)nc2cc(Cl)ccc12,0.85
11,Cc1nc(NC(=N)NCCCN2CCCC2)nc2ccccc12,2.1
12,Cc1nc(NC(=N)NCCCCN(C)C)nc2cc(F)ccc12,2.2
13,Cc1nc(NC(=N)NCCCN2CCCCC2)nc2cc(F)ccc12,0.68
14,Cc1nc(NC(=N)NCCCN(C)C)nc2cccc(F)c12,0.92
15,Cc1nc(NC(=N)NCCCN(C)C)nc(-c2ccoc2)c1C,1.3
16,Cc1nc(NC(=N)NC2CCCC(N(C)C)C2)nc2cc(F)ccc12 (stereo not given),5.5
17,Cc1nc(N=C(N)N)nc2cc(F)ccc12,13
18,Cc1nc(NC(=N)NCCCN(C)[C@H](C)c2ccccc2)nc2ccccc12,1.8
19,COCCNC(=N)Nc1nc(C)c2ccc(C)cc2n1,12
20,Cc1nc(NC(=N)NCCN(C)C)nc2cc(F)ccc12,3.9
21,Cc1nc(NC(=N)NCCCN2CCCC2)nc2c(C)cccc12,0.55
22,Cc1ccc2c(C)nc(NC(=N)NCCOCCO)nc2c1,48
23,CCNC(=N)Nc1nc(C)c2ccc(Cl)cc2n1,21
24,Cc1ccc2nc(NC(=N)NCCCN3CCCC3)nc(C)c2c1,2.3
25,Cc1cc(-c2ccoc2)nc(NC(=N)NCCCN(C)C)n1,3
